From patent US7442788B2, “Antisense molecules and method of controlling expression of gene function by using the same” (Japan Science and Technology Corporation, priority 2001, dated 2008)

System: d(C)8
Test: Melting temperature (Tm) of homopurine PRNA-DNA complex
Assay type: binding

In the case of “NH2-isoGln(5′I)-isoGln(5′I)-isoGln(5′I)-isoGln(5′I)-isoGln(5′I)-isoGln(5′I)-isoGln(5′I)-isoGln(5′I)-Lys-OH [NH2-IIIIIIII-Lys-OH]”, the Tm (binding target d(C)8, 20 mM borax) is reported as <−5 °C and the Tm (binding target d(C)8, no additive) is reported as 4.8 °C.
